Settings: Brillouin Light Scattering

CC(C)OC(C)C [diisopropyl ether]
Settings	speed of sound [m/s]
432.85 K, 1000 kPa, Liquid	434.31
433.18 K, 2500 kPa, Liquid	464.16
433.27 K, 4000 kPa, Liquid	498.85
437.97 K, 5500 kPa, Liquid	515.55
438.45 K, 8500 kPa, Liquid	566.84
438.48 K, 10000 kPa, Liquid	599.89
438.69 K, 7000 kPa, Liquid	537.87
438.94 K, 2500 kPa, Liquid	440.93
439.03 K, 4000 kPa, Liquid	475.92
442.55 K, 7000 kPa, Liquid	521.69
442.6 K, 4000 kPa, Liquid	461.81
442.85 K, 8500 kPa, Liquid	551.1
442.96 K, 10000 kPa, Liquid	583.95
443.09 K, 5500 kPa, Liquid	494.52
443.48 K, 2500 kPa, Liquid	424.11
447.46 K, 2500 kPa, Liquid	407.02
447.46 K, 10000 kPa, Liquid	569.2
447.74 K, 5500 kPa, Liquid	476.22
448.06 K, 8500 kPa, Liquid	530.98
448.43 K, 4000 kPa, Liquid	436.29
448.7 K, 7000 kPa, Liquid	505.01
453.11 K, 2500 kPa, Liquid	380.57
453.12 K, 5500 kPa, Liquid	456.86
453.5 K, 4000 kPa, Liquid	418.12
453.57 K, 10000 kPa, Liquid	548.35
453.75 K, 8500 kPa, Liquid	518.95
454.24 K, 7000 kPa, Liquid	488.02
457.15 K, 2500 kPa, Liquid	366.77
457.57 K, 10000 kPa, Liquid	539.84
457.63 K, 8500 kPa, Liquid	503.76
457.7 K, 7000 kPa, Liquid	475.35
457.87 K, 4000 kPa, Liquid	397.64
458.03 K, 5500 kPa, Liquid	440.35
462.93 K, 4000 kPa, Liquid	377.89
463.16 K, 7000 kPa, Liquid	457.86
463.6 K, 8500 kPa, Liquid	488.56
463.85 K, 10000 kPa, Liquid	521.08
463.88 K, 2500 kPa, Liquid	338.04
464.11 K, 5500 kPa, Liquid	418.4
467.52 K, 5500 kPa, Liquid	406.91
467.53 K, 10000 kPa, Liquid	508.72
467.58 K, 7000 kPa, Liquid	440.63
467.74 K, 8500 kPa, Liquid	473.19
468.21 K, 4000 kPa, Liquid	357.71
472.64 K, 8500 kPa, Liquid	459.74
472.67 K, 7000 kPa, Liquid	424.62
472.84 K, 5500 kPa, Liquid	384.97
472.94 K, 4000 kPa, Liquid	339.72
473.24 K, 10000 kPa, Liquid	491.15
505.6 K, 3500 kPa, Fluid (supercritical or subcritical phases)	132.11
505.8 K, 4500 kPa, Fluid (supercritical or subcritical phases)	215.46
506.21 K, 5500 kPa, Fluid (supercritical or subcritical phases)	263.63
506.39 K, 6500 kPa, Fluid (supercritical or subcritical phases)	301.19
509.39 K, 3500 kPa, Fluid (supercritical or subcritical phases)	114.34
509.87 K, 4500 kPa, Fluid (supercritical or subcritical phases)	196.58
510.29 K, 5500 kPa, Fluid (supercritical or subcritical phases)	244.35
510.5 K, 6500 kPa, Fluid (supercritical or subcritical phases)	281.9
516.22 K, 3500 kPa, Fluid (supercritical or subcritical phases)	102.13
516.95 K, 6500 kPa, Fluid (supercritical or subcritical phases)	262.61
517.48 K, 4500 kPa, Fluid (supercritical or subcritical phases)	161.27
518.73 K, 5500 kPa, Fluid (supercritical or subcritical phases)	206.26
519.67 K, 3500 kPa, Fluid (supercritical or subcritical phases)	108
520.35 K, 4500 kPa, Fluid (supercritical or subcritical phases)	144.87
521.7 K, 5500 kPa, Fluid (supercritical or subcritical phases)	199.75
522.21 K, 6500 kPa, Fluid (supercritical or subcritical phases)	243.32
526.46 K, 3500 kPa, Fluid (supercritical or subcritical phases)	116.09
527.21 K, 4500 kPa, Fluid (supercritical or subcritical phases)	126.63
528.59 K, 5500 kPa, Fluid (supercritical or subcritical phases)	173.63
529.79 K, 6500 kPa, Fluid (supercritical or subcritical phases)	222.12
532.59 K, 4500 kPa, Fluid (supercritical or subcritical phases)	114.85
533.14 K, 5500 kPa, Fluid (supercritical or subcritical phases)	166.48
533.59 K, 6500 kPa, Fluid (supercritical or subcritical phases)	210.67
534.66 K, 4500 kPa, Fluid (supercritical or subcritical phases)	113.71
535.53 K, 5500 kPa, Fluid (supercritical or subcritical phases)	159.52
536.07 K, 6500 kPa, Fluid (supercritical or subcritical phases)	205.77
536.58 K, 3500 kPa, Fluid (supercritical or subcritical phases)	132.72
540.66 K, 4500 kPa, Fluid (supercritical or subcritical phases)	121.9
541.18 K, 5500 kPa, Fluid (supercritical or subcritical phases)	155.19
541.51 K, 6500 kPa, Fluid (supercritical or subcritical phases)	190.79
544.16 K, 3500 kPa, Fluid (supercritical or subcritical phases)	139.1
545.71 K, 4500 kPa, Fluid (supercritical or subcritical phases)	129.23
546.93 K, 5500 kPa, Fluid (supercritical or subcritical phases)	147.8
547.24 K, 6500 kPa, Fluid (supercritical or subcritical phases)	183.8
551 K, 3500 kPa, Fluid (supercritical or subcritical phases)	147.92
554.09 K, 4500 kPa, Fluid (supercritical or subcritical phases)	137.04
554.6 K, 5500 kPa, Fluid (supercritical or subcritical phases)	142.16
555.23 K, 6500 kPa, Fluid (supercritical or subcritical phases)	172.31
556.02 K, 3500 kPa, Fluid (supercritical or subcritical phases)	156.04
562.71 K, 3500 kPa, Fluid (supercritical or subcritical phases)	162.02
564.46 K, 4500 kPa, Fluid (supercritical or subcritical phases)	151.45
564.68 K, 5500 kPa, Fluid (supercritical or subcritical phases)	144.2
564.77 K, 6500 kPa, Fluid (supercritical or subcritical phases)	162.69
568.12 K, 3500 kPa, Fluid (supercritical or subcritical phases)	172.59
570.23 K, 4500 kPa, Fluid (supercritical or subcritical phases)	159.8
570.32 K, 6500 kPa, Fluid (supercritical or subcritical phases)	155.46
571.21 K, 5500 kPa, Fluid (supercritical or subcritical phases)	149.54
572.24 K, 3500 kPa, Fluid (supercritical or subcritical phases)	178.24
574.75 K, 6500 kPa, Fluid (supercritical or subcritical phases)	156.08
575.87 K, 4500 kPa, Fluid (supercritical or subcritical phases)	166.92
576.95 K, 5500 kPa, Fluid (supercritical or subcritical phases)	157.61
578.05 K, 3500 kPa, Fluid (supercritical or subcritical phases)	184.2
580.81 K, 6500 kPa, Fluid (supercritical or subcritical phases)	160.95
582.97 K, 4500 kPa, Fluid (supercritical or subcritical phases)	176.94
583.61 K, 3500 kPa, Fluid (supercritical or subcritical phases)	191.39
583.79 K, 5500 kPa, Fluid (supercritical or subcritical phases)	168.45
586.87 K, 6500 kPa, Fluid (supercritical or subcritical phases)	165.44
587.28 K, 5500 kPa, Fluid (supercritical or subcritical phases)	174.08
588.06 K, 4500 kPa, Fluid (supercritical or subcritical phases)	184.23
588.82 K, 3500 kPa, Fluid (supercritical or subcritical phases)	197.63
591.77 K, 3500 kPa, Fluid (supercritical or subcritical phases)	201.8
592.03 K, 6500 kPa, Fluid (supercritical or subcritical phases)	173.69
592.07 K, 4500 kPa, Fluid (supercritical or subcritical phases)	191.01
592.51 K, 5500 kPa, Fluid (supercritical or subcritical phases)	179.58
595.88 K, 6500 kPa, Fluid (supercritical or subcritical phases)	181.47
597.6 K, 4500 kPa, Fluid (supercritical or subcritical phases)	197.93
597.6 K, 5500 kPa, Fluid (supercritical or subcritical phases)	185.96
597.62 K, 3500 kPa, Fluid (supercritical or subcritical phases)	207.01
602.12 K, 3500 kPa, Fluid (supercritical or subcritical phases)	213.74
602.56 K, 4500 kPa, Fluid (supercritical or subcritical phases)	203.87
603.22 K, 6500 kPa, Fluid (supercritical or subcritical phases)	189.62
603.37 K, 5500 kPa, Fluid (supercritical or subcritical phases)	196.7
607.19 K, 4500 kPa, Fluid (supercritical or subcritical phases)	209.92
607.26 K, 5500 kPa, Fluid (supercritical or subcritical phases)	201.24
608.3 K, 3500 kPa, Fluid (supercritical or subcritical phases)	220.34
608.98 K, 6500 kPa, Fluid (supercritical or subcritical phases)	198.69
612.23 K, 3500 kPa, Fluid (supercritical or subcritical phases)	223.95
612.23 K, 4500 kPa, Fluid (supercritical or subcritical phases)	214.66
612.33 K, 5500 kPa, Fluid (supercritical or subcritical phases)	208.84
612.73 K, 6500 kPa, Fluid (supercritical or subcritical phases)	201.04
617.47 K, 4500 kPa, Fluid (supercritical or subcritical phases)	220.52
618 K, 3500 kPa, Fluid (supercritical or subcritical phases)	231.2
618.05 K, 5500 kPa, Fluid (supercritical or subcritical phases)	215.78
618.31 K, 6500 kPa, Fluid (supercritical or subcritical phases)	208.27
622.27 K, 3500 kPa, Fluid (supercritical or subcritical phases)	235.81
623.05 K, 5500 kPa, Fluid (supercritical or subcritical phases)	219.38
623.51 K, 4500 kPa, Fluid (supercritical or subcritical phases)	226.31
623.75 K, 6500 kPa, Fluid (supercritical or subcritical phases)	213.55
626.85 K, 5500 kPa, Fluid (supercritical or subcritical phases)	224.98
627.63 K, 6500 kPa, Fluid (supercritical or subcritical phases)	217.44
627.65 K, 3500 kPa, Fluid (supercritical or subcritical phases)	240.7
628.55 K, 4500 kPa, Fluid (supercritical or subcritical phases)	231.82
632.23 K, 4500 kPa, Fluid (supercritical or subcritical phases)	235.83
632.72 K, 5500 kPa, Fluid (supercritical or subcritical phases)	227.82
632.86 K, 3500 kPa, Fluid (supercritical or subcritical phases)	243.95
633.54 K, 6500 kPa, Fluid (supercritical or subcritical phases)	221.63
637.16 K, 6500 kPa, Fluid (supercritical or subcritical phases)	225.18
638.22 K, 3500 kPa, Fluid (supercritical or subcritical phases)	249.88
638.59 K, 4500 kPa, Fluid (supercritical or subcritical phases)	240.88
638.75 K, 5500 kPa, Fluid (supercritical or subcritical phases)	232.85
642.34 K, 6500 kPa, Fluid (supercritical or subcritical phases)	228.66
643.55 K, 4500 kPa, Fluid (supercritical or subcritical phases)	245.98
643.72 K, 3500 kPa, Fluid (supercritical or subcritical phases)	254.88
644.35 K, 5500 kPa, Fluid (supercritical or subcritical phases)	237.43
648.15 K, 5500 kPa, Fluid (supercritical or subcritical phases)	239.71
648.16 K, 6500 kPa, Fluid (supercritical or subcritical phases)	231.72
648.36 K, 3500 kPa, Fluid (supercritical or subcritical phases)	257.88
648.6 K, 4500 kPa, Fluid (supercritical or subcritical phases)	250.01
652.25 K, 4500 kPa, Fluid (supercritical or subcritical phases)	253.58
652.83 K, 5500 kPa, Fluid (supercritical or subcritical phases)	244.43
653.38 K, 3500 kPa, Fluid (supercritical or subcritical phases)	263.46
653.97 K, 6500 kPa, Fluid (supercritical or subcritical phases)	236.88
657.92 K, 5500 kPa, Fluid (supercritical or subcritical phases)	246.91
658.37 K, 4500 kPa, Fluid (supercritical or subcritical phases)	256.34
658.49 K, 6500 kPa, Fluid (supercritical or subcritical phases)	239.95
658.61 K, 3500 kPa, Fluid (supercritical or subcritical phases)	265.77
662.18 K, 5500 kPa, Fluid (supercritical or subcritical phases)	249.76
662.28 K, 4500 kPa, Fluid (supercritical or subcritical phases)	259.34
663.04 K, 6500 kPa, Fluid (supercritical or subcritical phases)	242.15
664.11 K, 3500 kPa, Fluid (supercritical or subcritical phases)	269.84
667.5 K, 5500 kPa, Fluid (supercritical or subcritical phases)	252.59
667.83 K, 4500 kPa, Fluid (supercritical or subcritical phases)	264.18
667.84 K, 6500 kPa, Fluid (supercritical or subcritical phases)	245.05
668.59 K, 3500 kPa, Fluid (supercritical or subcritical phases)	271.89
670.57 K, 5500 kPa, Fluid (supercritical or subcritical phases)	254.53
671.41 K, 6500 kPa, Fluid (supercritical or subcritical phases)	247.45
672.38 K, 4500 kPa, Fluid (supercritical or subcritical phases)	265.43
672.56 K, 3500 kPa, Fluid (supercritical or subcritical phases)	274.52

speed of sound [m/s]
Settings	443.46 K	453.54 K	457.54 K	463 K	468.31 K	473.8 K	478.69 K	483.1 K	487.42 K	492.48 K
Gas	140.99	135.34	131.58	125.98	121.95	115.5	108.41	103.7	98.66	91.71
Liquid	384.46	336.71	315.85	290.41	263.51	237.38	210.25	185.8	162.27	135.68

Reference: the NIST ThermoML archive (doi:10.1016/j.jct.2016.09.005)
